≈ marks a conversion by molar mass, not a printed value. Read-outs that look alike come from different tables or passages of the source.
Tests used:
Kleb. pneumo. 4200 = assay: in vivo mouse protection test
Method: (§1) 4200 upon subcutaneous injection; and 17.5 mg./kg. against E. coli 12140 and 25.5 mg./kg. against Kleb. pneumo. 4200 upon oral administration.

E. coli 12140 = assay: in vivo mouse protection test; conditions: Escherichia coli
Method: as §1

Strep. faecalis HH 34358 = assay: in vitro MIC testing; type: cell-based; conditions: Enterococcus faecalis, HH34358, two values given
Method: (§2) The compounds of Formula I have exceptional antibacterial activity against both Gram-positive and Gram-negative organisms. Minimum inhibitory concentrations (MIC's) range from 0.1 to >200 μg./ml. in in vitro testing. Test results for the compound 7-D-mandelamido-3-[1-(2-ureidoethyl)tetrazol-5-ylthiomethyl]-3-cephem-4-carboxylic acid are given below: […]

Kleb. pneumo. SK 4200 = assay: in vitro MIC testing; type: cell-based; conditions: two values given
Method: as §2

Shigella HH 117 = assay: in vitro MIC testing; type: cell-based; conditions: two values given
Method: as §2

Pseudo. aerug. HH 63 = assay: in vitro MIC testing; type: cell-based; conditions: two values given
Method: as §2

Proteus morgani 179 = assay: in vitro MIC testing; type: cell-based; conditions: two values given
Method: as §2

E. coli SK 12140 = assay: in vitro MIC testing; type: cell-based; conditions: Escherichia coli, SK12140, two values given
Method: as §2

E. coli HH 33779 = assay: in vitro MIC testing; type: cell-based; conditions: Escherichia coli, HH33779, two values given
Method: as §2

S. aureus SK 23390 = assay: in vitro MIC testing; type: cell-based; conditions: Staphylococcus aureus, SK23390, two values given
Method: as §2

S. villaluz SK 70390 = assay: in vitro MIC testing; type: cell-based; conditions: two values given
Method: as §2

Kleb. pneumo. SK 1200 = assay: in vitro MIC testing; type: cell-based; conditions: two values given
Method: as §2

S. aureus HH 127 = assay: in vitro MIC testing; type: cell-based; conditions: two values given
Method: as §2

[1] = tested on: Serratia Marc. ATCC 13880; assay: in vitro MIC testing; type: cell-based; conditions: ATCC13880, two values given
Method: as §2

Entero. cloacae HH 31254 = assay: in vitro MIC testing; type: cell-based; conditions: Enterobacter cloacae, HH31254, two values given
Method: as §2

## NC(=O)NCCn1nnnc1SCC1=C(C(=O)O)N2C(=O)C(NC(=O)[C@H](O)c3ccccc3)[C@H]2SC1 (stereo partly drawn) [7-D-Mandelamido-3-[1-(2-ureidoethyl)tetrazol-5-ylthiomethyl]-3-cephem-4-carboxylic acid]
Kleb. pneumo. 4200; Kleb. pneumo. 4200, oral administration
  ED50: 25.5 mg/kg
Kleb. pneumo. 4200; sc, Kleb. pneumo. 4200, subcutaneous injection
  ED50: 1.34 mg/kg
E. coli 12140; E. coli 12140, oral administration
  ED50: 17.5 mg/kg
E. coli 12140; sc, E. coli 12140, subcutaneous injection
  ED50: 0.86 mg/kg
Strep. faecalis HH 34358
  MIC: 25 µg/mL (≈ 46.8 µM)
Kleb. pneumo. SK 4200
  MIC: 0.8 µg/mL (≈ 1.5 µM)
Shigella HH 117; Shigella HH 117
  MIC: 0.2 µg/mL (≈ 0.374 µM)
Shigella HH 117; Shigella, HH117, Shigella HH 117, read-out: MIC
  MIC: 0.1 µg/mL (≈ 0.187 µM)
Pseudo. aerug. HH 63
  MIC: > 200 µg/mL
Proteus morgani 179
  MIC: 0.8 µg/mL (≈ 1.5 µM)
E. coli SK 12140
  MIC: 0.8 µg/mL (≈ 1.5 µM)
E. coli HH 33779
  MIC: 1.6 µg/mL (≈ 2.99 µM)
S. aureus SK 23390
  MIC: 0.4 µg/mL (≈ 0.748 µM)
S. villaluz SK 70390
  MIC: 25 µg/mL (≈ 46.8 µM)
Kleb. pneumo. SK 1200
  MIC: 0.4 µg/mL (≈ 0.748 µM)
S. aureus HH 127; S. aureus HH 127
  MIC: 1.6 µg/mL (≈ 2.99 µM)
S. aureus HH 127; Staphylococcus aureus, HH127, S. aureus HH 127, read-out: MIC
  MIC: 3.1 µg/mL (≈ 5.8 µM)
[1]
  MIC: 25 µg/mL (≈ 46.8 µM)
Entero. cloacae HH 31254
  MIC: 0.8 µg/mL (≈ 1.5 µM)

Reference: patent publication US4025626A, “7-Acyl-3-(ureidoalkyl substituted tetrazolylthiomethyl)-cephalosporins” (SmithKline Corporation, priority 1975, dated 1977)
